The source of these data is patent US7371867B2, “Non-racemic trifluoroleucine, and methods of making and using” (Trustees of Tufts College, priority 2001, dated 2008).

A word on the melting point: it is the temperature, or range, at which the solid turns liquid.

`CC(C)(C)OC(=O)N[C@@H](CC(C(F)(F)F)C(F)(F)F)C(=O)O` [Peptide 5, N-Boc-5,5,5,5′,5′,5′-(S)-Hexafluoroleucine] displayed a melting point of 85 to 91 °C.
